Test results reported in US20040014681A1, “Method for treating dermatoses and tissue damage” (priority 2002, published 2004).

Legend:
[1] = several rodent models of epilepsy and an animal model of kindled epilepsy; cited from earlier work
[2] = Case examples: topical treatment of poison ivy lesions; assay type: in vivo, human; conditions: Case 4, young person, poison ivy lesions on back, once a day application
Procedure: (§1) The following non-limiting case examples are presented to further illustrate the present invention: In the following examples, unless otherwise stated, the ointment contained about 0.15-0.22 mg of topiramate per ml of ointment (Thermaderm, an aqueous vanishing cream emollient) and sodium bicarbonate in an amount to provide a pH of about 7.8-8.
Case 3: Poison Ivy—A young child with known sensitivity to poison ivy presents with typical raised red vesicular lesions on their hands and left forearm. Topiramate cream/ointment was applied daily with the disappearance of lesions after 3 days.
Case 4: Poison Ivy—A young person having a history of extreme sensitivity to poison ivy presented with the entire right lower quadrant of their back covered with red, vesicular, and oozing lesions. These lesions cleared after four days of once a day application of Topiramate, at which time the application was stopped, leaving the skin dry with dead scales/scabs. The patient was seen four days later in this condition and began to apply Topirmate cream/lotion ever other day with complete resolution over the next six days.

[3] = adjunctive therapy or monotherapy; cited from earlier work
[4] = Case examples: topical treatment of contact dermatitis to jewelry; assay type: in vivo, human; conditions: Case 5, adult, recurring red oozing dermatitis under gold and stone ring
Procedure: as §1
Case 5: Contact dermatitis to jewelry. […] This was usually treated with topical 0.1% mometasone furoate once daily for six or seven days with clearing of the lesion.
Case 6. Contact dermatitis to jewelry. An adult presented with a recurring red oozing dermatitis under a tight fitting silver/gold stone bracelet on their left wrist occurring especially during the winter and usually treated with topical corticosteroids over a five day period. Topiramate cream/ointment was applied daily with complete clearing in two days.

| Structure (SMILES) | block of seizures [1] | time until lesions cleared [2] | efficacy in clinical trials of human epilepsy [3] | time until clearing of the lesion [4] |
| --- | --- | --- | --- | --- |
| CC1(C)O[C@@H]2[C@@H](CO[C@@]3(COS(N)(=O)=O)OC(C)(C)O[C@@H]23)O1 [topiramate, 2,3:4,5-bis-O-(1-methylethylidence)-β-D-fructopyranose sulfamate] | effectively block seizures | four | effective as adjunctive therapy or as monotherapy | – |
| C[C@@H]1C[C@H]2[C@@H]3CCC4=CC(=O)C=C[C@]4(C)[C@@]3(Cl)[C@@H](O)C[C@]2(C)[C@@]1(OC(=O)c1ccco1)C(=O)CCl [mometasone furoate] | – | – | – | six or seven |
